Tests used:
Experiment in all cases: combination Emax (second highest fraction inhibited in the dose matrix, 72 h); higher = more inhibition; extreme values may be limits of the assay
[1] = system: NCI-H1781 (Lung Adenocarcinoma)
Procedure, shortened: (§1)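 Cell lines in DMEM/F12 or RPMI with 10% FBS were plated in 1536-well plates, held 24 hours at 37°C, 5% CO2, then given two-drug dose matrices for 72 hours (DMSO typically 0.2%). Viability was read by CellTiter-Glo 2.0 luminescence and scaled as inhibition from 0 (vehicle wells) to 1 (blank wells). Combination Emax is the second-highest inhibition in the matrix; Bliss excess is observed combination effect minus expected EA + EB − EA·EB, EA and EB being single-agent effects.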

[2] = system: HCC2157 (Breast Carcinoma)
Procedure, shortened: as §1

[3] = system: CFPAC-1 (Pancreatic Carcinoma)
Procedure, shortened: as §1

[4] = system: LU-99A (Non-Small Cell Lung Carcinoma)
Procedure, shortened: as §1

[5] = system: DMS-273 (Small Cell Lung Carcinoma)
Procedure, shortened: as §1

[6] = system: SW1990 (Pancreatic Carcinoma)
Procedure, shortened: as §1

[7] = system: SW1088 (Low Grade Glioma)
Procedure, shortened: as §1

[8] = system: NCI-H1299 (Non-Small Cell Lung Carcinoma)
Procedure, shortened: as §1

[9] = system: OCI-AML2 (Acute Myeloid Leukemia)
Procedure, shortened: as §1

[10] = system: IHH-4 (Thyroid Gland Carcinoma)
Procedure, shortened: as §1

[11] = system: MFH-ino (Other Solid Carcinomas)
Procedure, shortened: as §1

J82 (Bladder Carcinoma) = system: J82 (Bladder Carcinoma)
Procedure, shortened: as §1

SK-N-FI (Neuroblastoma) = system: SK-N-FI (Neuroblastoma)
Procedure, shortened: as §1

[12] = system: 697 (B-Lymphoblastic Leukemia)
Procedure, shortened: as §1

[13] = system: TGBC24TKB (Biliary Tract Carcinoma)
Procedure, shortened: as §1

SN12C (Kidney Carcinoma) = system: SN12C (Kidney Carcinoma)
Procedure, shortened: as §1

[14] = system: C3A (Hepatocellular Carcinoma)
Procedure, shortened: as §1

[15] = system: COR-L23 (Non-Small Cell Lung Carcinoma)
Procedure, shortened: as §1

[16] = system: NALM-6 (B-Lymphoblastic Leukemia)
Procedure, shortened: as §1

[17] = system: MDA-MB-231 (Breast Carcinoma)
Procedure, shortened: as §1

Structure (SMILES) | combination Emax [1] | combination Emax [2] | combination Emax [3] | combination Emax [4] | combination Emax [5] | combination Emax [6] | combination Emax [7] | combination Emax [8] | combination Emax [9] | combination Emax [10] | combination Emax [11] | combination Emax (J82 (Bladder Carcinoma)) | combination Emax (SK-N-FI (Neuroblastoma)) | combination Emax [12] | combination Emax [13] | combination Emax (SN12C (Kidney Carcinoma)) | combination Emax [14] | combination Emax [15] | combination Emax [16] | combination Emax [17]
CC1(C)CCC(CN2CCN(c3ccc(C(=O)NS(=O)(=O)c4ccc(NCC5CCOCC5)c([N+](=O)[O-])c4)c(Oc4cnc5[nH]ccc5c4)c3)CC2)=C(c2ccc(Cl)cc2)C1 [Venetoclax] + C[C@@H](Nc1cc(F)cc(F)c1)c1cc(C(=O)N(C)C)cc2c(=O)cc(N3CCOCC3)oc12 [AZD8186] (first compound max 1 µM, 7x7, partner max 3 µM) | 0.28 | 0.919 | 0.255 | 0.234 | 0.482 | 0.452 | 0.493 | 0.149 | 1 | 0.22 | 0.0981 | 0.14 | 0.243 | 0.986 | 0.169 | 0.174 | 0.296 | 0.054 | 0.866 | 0.137
Cn1cnc2c(F)c(Nc3ccc(Br)cc3Cl)c(C(=O)NOCCO)cc21 [Selumetinib] + CCN(CCO)CCCOc1ccc2c(Nc3cc(CC(=O)Nc4cccc(F)c4)[nH]n3)ncnc2c1 [AZD2811] (first compound max 10 µM, 7x7, partner max 1 µM) | 0.623 | 0.628 | 0.292 | 0.453 | 0.804 | 0.245 | 0.424 | 0.363 | 1 | 0.586 | 0.273 | 0.153 | 0.455 | 1 | 0.551 | 0.237 | 0.494 | 0.467 | 0.836 | 0.519
CCN(CCO)CCCOc1ccc2c(Nc3cc(CC(=O)Nc4cccc(F)c4)[nH]n3)ncnc2c1 [AZD2811] + O=C(c1cc(Cc2n[nH]c(=O)c3ccccc23)ccc1F)N1CCN(C(=O)C2CC2)CC1 [Olaparib] (first compound max 1 µM, 7x7, partner max 10 µM) | 0.67 | 0.539 | 0.215 | 0.508 | 0.735 | 0.168 | 0.616 | 0.303 | 0.873 | 0.459 | 0.338 | 0.0709 | 0.171 | 1 | 0.564 | 0.273 | 0.253 | 0.0799 | 0.873 | 0.275
CN(CCO)CC[C@H](CSc1ccccc1)Nc1ccc(S(=O)(=O)NC(=O)c2ccc(N3CCC([C@@H](O)c4ccccc4-c4ccc(Cl)cc4)CC3)cc2)cc1S(=O)(=O)C(F)(F)F [AZD4320] + CN(C)CCCOc1ccc(-c2ccc3ncc4c(c3c2)n(C2CCOCC2)c(=O)n4C)cn1 [AZD0156] (first compound max 1 µM, 7x7, partner max 1 µM) | 0.183 | 0.936 | 0.115 | 0.292 | 0.247 | 0.079 | 0.164 | 0.149 | 1 | 0.224 | 0.102 | 0.122 | 0.17 | 1 | 0.598 | 0.169 | 0.248 | 0.0875 | 0.973 | 0.655
COc1cc2ncnc(Nc3ccc(F)c(Cl)c3)c2cc1OCCCN1CCOCC1 [Gefitinib] + CC(C)n1c(=O)n(C)c2cnc3cc(F)c(-c4ccc(OCCCN5CCCCC5)nc4)cc3c21 [AZD1390] (first compound max 10 µM, 7x7, partner max 0.3 µM) | 0.538 | 0.723 | 0.304 | 0.154 | 0.325 | 0.213 | 0.108 | 0.0669 | 0.083 | 0.0356 | 0 | 0.139 | 0.175 | 0.422 | 0.348 | 0.21 | 0.377 | 0.0639 | 0.176 | 0.193
COc1cc2c(cc1OCCCCCOc1cc3c(cc1OC)C(=O)N1C=C(C)C[C@H]1C=N3)N=C[C@@H]1CC(C)=CN1C2=O [SG3199] + O=C(c1cc(Cc2n[nH]c(=O)c3ccccc23)ccc1F)N1CCN(C(=O)C2CC2)CC1 [Olaparib] (first compound max 0.001 µM, 7x7, partner max 10 µM) | 0.45 | 0.264 | 0.175 | 0.356 | 0.308 | 0.125 | 0.151 | 0.138 | 0.747 | 0.193 | 0.134 | 0.187 | 0.0819 | 0.984 | 0.126 | 0.172 | 0.215 | 0.221 | 0.459 | 0.178

From the supplement of paper PMC11061612
